Counter-ions that a name gives are not always drawn.
Experiments:
EAE in wild-type mice = assay: Experimental autoimmune encephalomyelitis (EAE) induction in wild-type mice; type: in vivo, mouse; details: C1 0.556 nmole/g, C2 0.085 nmole/g; for serum IL-17A levels in EAE: day 16
Source text: (A to C) Effect of the GLK inhibitor C1 (verteporfin) administration (0.556 nmole/g every 3 days for 30 days) on serum IL-17A and autoantibodies in Lck-GLK Tg mice. (B) ELISA of indicated serum cytokines in Lck-GLK Tg mice treated with C1 (verteporfin) or PBS. (C) ELISA of serum autoantibodies in Lck-GLK Tg mice treated with C1 (verteporfin) or PBS. Means±SEM are shown. (D) Experimental autoimmune encephalomyelitis (EAE) induction in wild-type mice treated with PBS, or the GLK inhibitor C1 (verteporfin) and C2. Clinical scores are presented on a scale of 1 to 5 (left panel). ELISA of IL-17A in the sera from MOG-immunized mice at day 16 (right panel). (E) Collagen-induced arthritis (CIA) induction in wild-type mice treated with the GLK inhibitor C1 (verteporfin) or PBS. Clinical scores are presented on a scale of 1 to 16 (left panel). ELISA of IL-17A in the sera from collagen-immunized mice at day 28. Means±SEM are shown. *, P value<0.05; **, P value<0.01; ***, P value<0.001 (two-tailed Student's […]). C1 denotes verteporfin; C2 denotes alexidine dihydrochloride.
Moreover, overproduction of autoantibodies in Lck-GLK Tg mice were also abolished by C1 (verteporfin) treatment (FIG. 10C). […] To further verify that the GLK inhibitors also works in IL-17A-mediated animal models, we challenged wild-type mice with C1 (verteporfin) or C2 (alexidine dihydrochloride) during EAE and CIA induction.

HGK (MAP4K4) = biological target: T1, HGK (MAP4K4) (Homo sapiens, UniProt O95819); assay: In vitro kinase assay, recombinant kinase domain, MBP as substrate; type: biochemical
T1 construct: Recombinant proteins of kinase domains of various MAP4Ks were used
Experimental: GLK kinase activity was determined by measuring the rate of ADP production in the in vitro kinase reaction using ADP-GLO™ Kinase Assay kit. For the kinase reaction, recombinant proteins of the GLK kinase-domain (1 μg) were incubated with recombinant proteins of kinase-dead PKCθ (K409W; 0.15 μg) plus ATP (0.1 mM) or myelin basic protein (MBP) plus ATP (0.1 mM) in kinase buffer (40 mM Tris-HCl, pH7.5.20 mM MgCl2, 0.1 mg/ml BSA, 10 mM DTT and 0.1 mM Na3VO4) for 30 min at room temperature. We studied whether GLK inhibitors also suppress cancer cell migration. […] Moreover, both C1 (verteporfin) and C2 (alexidine dihydrochloride) treatments suppressed tumor growth in the xenograft mouse model using TC-1 lung cancer cells (FIG. 15). To study whether GLK deficiency results in a reduction of lung cancer metastasis, we used a metastatic Lewis lung carcinoma (LLC) mouse model by tail vein injection of luciferase-expressing LLC (LLC/luc) cells. We identified two GLK inhibitors (verteporfin and alexidine dihydrochloride)) using cell-based assays and in vitro kinase assays. […] The dimerization of Flag-tagged GLK protein and GFP-GLK fusion protein was indeed blocked by the C1 (verteporfin) treatment (FIG. 16C). We treated the LLC/luc cells-containing mice with the GLK inhibitor C1 (verteporfin) or C2 (alexidine dihydrochloride) by intravenous injection every 3 days for 30 days (FIG. 16D). The luciferase activity of LLC/luc cells in the mice was detected by In Vivo Imaging System. The excised lungs were weighed and subjected to H&E staining. The luciferase activity of LLC/luc cells in the lung of injected mice was reduced by the treatment of C1 (verteporfin) or C2 (alexidine dihydrochloride) (FIGS. 16E-F). […] Moreover, the interaction between GLK and IQGAP1 in the lung tissues were inhibited by the treatment of C1 (verteporfin) or C2 (alexidine dihydrochloride) (FIG. 16H, upper panel), and IQGAP1 phosphorylation was in the lung tissues were inhibited (FIG. 16H, lower panel). […] Inhibition of kinase activity of GLK (MAP4K3) or other MAP4Ks was determined by in vitro kinase assays using myelin basic protein (MBP) as a substrate. Recombinant proteins of kinase domains of various MAP4Ks were used. C1, verteporfin: C2, alexidine dihydrochloride.

[1] = test system: GLK-induced NF-κB-luciferase activity; assay: NF-κB-driven luciferase reporter assay in CHO-GLK-Luc cells; type: cell-based; details: stable GLK-transfected CHO-K1 cells
Experimental: (A) Luciferase activity of NF-κB-driven reporter assays in stable GLK-transfected CHO-K1 cells that were treated with or without the GLK inhibitor C1 (verteporfin) under the indicated concentration. The fold changes are presented relative to the value of vector control. (B) Recombinant proteins of GLK kinase domain plus recombinant proteins of GST-tagged kinase-dead PKCθ (K409W) were subjected to in vitro kinase assays in the presence or absence of the GLK inhibitor C1 (verteporfin). Means±SD of are shown. *, P value<0.05; **, P value<0.01 (two-tailed Student's t-test). (C) The AhR-RORγt complex was inhibited by the GLK inhibitor. Confocal microscopy of proximity ligation assays (PLA) for the interaction between AhR and either RORγt or phospho-RORγt (S489) in peripheral blood T cells treated with C1 (verteporfin) (5 μM) for 30 min. The T cells were freshly isolated from 4 SLE patients and 1 RA patients. C1 denotes verteporfin; C2 denotes alexidine dihydrochloride. (D) Quantification of the PLA signals of (C). (E) FRET assays of HEK293T cells co-transfected with CFP-AhR, YFP-RORγt, and IKKβ plasmids.
Cell-based high-throughput screening was conducted against a representative library of 100,000 molecules at ˜10 μM. CHO-GLK-Luc cells expressing GLK and NF-κB-luciferase reporter were used. […] This high-throughput screening campaign was successful with a determined Z′ factor of 0.57˜0.60. […]

TC-1 lung cancer cells = assay: TC-1 lung cancer xenograft model in wild-type mice; type: in vivo, mouse; details: i.v. C1 10 uM, C2 17 uM every 3 days for 15 days
Experimental: (A) Murine TC-1 lung cancer cells were subcutaneously inoculated into the right flank of wild-type mice for establishing a TC-1 xenograft model. TC-1 cells inoculated mice were intravenously injected with PBS, C1 (verteporfin) (10 uM), or C2 (alexidine dihydrochloride) (17 uM) every 3 days for 15 days. (B) Photographs of excised TC-1 lung cancers after receiving PBS, C1 (verteporfin) (10 uM), or C2 (17 uM) treatment. (C) The growth (mean tumor volume) of tumor was measured for 15 days. The TC-1 tumor size progression as a function of time post-administration with C1 or C2. N.D., not detectable. C1 denotes verteporfin; C2 denotes alexidine dihydrochloride.

T1 sequence (O95819 25-289 limits assumed, species assumed): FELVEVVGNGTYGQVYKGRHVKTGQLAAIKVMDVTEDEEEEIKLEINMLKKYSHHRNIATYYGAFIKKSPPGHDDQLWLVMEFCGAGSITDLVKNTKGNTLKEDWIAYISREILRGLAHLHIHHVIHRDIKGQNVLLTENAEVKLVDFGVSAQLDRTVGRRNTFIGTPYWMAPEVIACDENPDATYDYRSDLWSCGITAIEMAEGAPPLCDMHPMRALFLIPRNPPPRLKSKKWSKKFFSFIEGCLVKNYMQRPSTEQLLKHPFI

SMILES: C=Cc1c(C)c2cc3nc(cc4[nH]c(cc5nc(cc1[nH]2)C(C)=C5CCC(=O)O)c(CCC(=O)OC)c4C)[C@@]1(C)C3=CC=C(C(=O)OC)[C@H]1C(=O)OC [C1, verteporfin]
- disease severity (clinical score) in EAE (EAE in wild-type mice): significantly suppressed
- serum IL-17A levels in EAE (EAE in wild-type mice): significantly suppressed
- IC50 (HGK (MAP4K4)): 4.92 nM
- GLK signaling in cell lines (luciferase reporter) [1]: efficiently inhibited
- tumor growth (mean tumor volume) (TC-1 lung cancer cells): suppressed

SMILES: CCCCC(CC)CNC(=N)NC(=N)NCCCCCCNC(=N)NC(=N)NCC(CC)CCCC (stereo not shown) [C2, alexidine dihydrochloride]
- disease severity (clinical score) in EAE (EAE in wild-type mice): significantly suppressed
- serum IL-17A levels in EAE (EAE in wild-type mice): significantly suppressed
- IC50 (HGK (MAP4K4)): 21.8 nM
- GLK signaling in cell lines (luciferase reporter) [1]: efficiently inhibited
- tumor growth (mean tumor volume) (TC-1 lung cancer cells): suppressed
